Data as given in article PMC4978465 (Nature, 2015).

How the values were obtained:
BxGH99 = target: T1, BxGH99 (Bacteroides xylanisolvens, UniProt D6D1V7); assay: X-ray crystal structure; type: binding; conditions: crystal soak about 10 mM
T1 sequence (D6D1V7 13-380): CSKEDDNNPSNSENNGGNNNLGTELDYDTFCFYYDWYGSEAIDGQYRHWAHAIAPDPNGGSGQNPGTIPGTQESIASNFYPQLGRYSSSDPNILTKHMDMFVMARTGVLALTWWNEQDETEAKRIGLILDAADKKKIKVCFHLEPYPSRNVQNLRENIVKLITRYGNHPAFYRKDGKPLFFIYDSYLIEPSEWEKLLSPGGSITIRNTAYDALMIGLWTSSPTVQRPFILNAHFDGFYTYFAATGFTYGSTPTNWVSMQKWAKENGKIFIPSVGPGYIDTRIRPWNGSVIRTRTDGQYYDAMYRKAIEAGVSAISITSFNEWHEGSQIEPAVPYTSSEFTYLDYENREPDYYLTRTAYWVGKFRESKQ

BT3775 = target: T2, BT3775 (Bacteroides thetaiotaomicron, UniProt Q8A191); assay: HPAEC, MALDI-TOF, linkage analysis; type: biochemical; conditions: 10 mM MnCl2, pH 7.5, 37 °C
T2 sequence (Q8A191 1-224): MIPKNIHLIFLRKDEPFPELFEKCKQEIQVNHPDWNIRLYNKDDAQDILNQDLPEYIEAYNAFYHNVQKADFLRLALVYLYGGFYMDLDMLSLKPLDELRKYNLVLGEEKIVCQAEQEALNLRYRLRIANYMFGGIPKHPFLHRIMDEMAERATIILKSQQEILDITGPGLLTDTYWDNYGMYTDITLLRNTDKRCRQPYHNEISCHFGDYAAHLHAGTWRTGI

OC[C@H]1O[C@H](O[C@@H]2C(O)O[C@H](CO)[C@@H](O)[C@@H]2O)[C@@H](O)[C@@H](O)[C@@H]1O (stereo partly drawn) [α-1,2-mannobiose]
X-ray crystal structure (BxGH99; ternary complex with Man-IFG): ternary with Man-IFG and α-1,2-mannobiose, was achieved by soaking native BxGH99 crystals

OC[C@H]1OC(O)[C@@H](O)[C@@H](O)[C@@H]1O (stereo partly shown) [mannose]
HPAEC, MALDI-TOF, linkage analysis (BT3775; donor GDP-mannose): mannobiose produced by BT3775 from mannose

Nc1nc2c(ncn2[C@@H]2O[C@H](COP(=O)(O)OP(=O)(O)O[C@H]3O[C@H](CO)[C@@H](O)[C@H](O)[C@@H]3O)[C@@H](O)[C@H]2O)c(=O)[nH]1 [GDP-Mannose]
HPAEC, MALDI-TOF, linkage analysis (BT3775; acceptor mannose): using mannose as an acceptor and GDP-α-Man as the donor

OC[C@H]1CNC[C@@H](O[C@H]2O[C@H](CO)[C@@H](O)[C@H](O)[C@@H]2O)[C@@H]1O [Man-IFG]
X-ray crystal structure (BxGH99; ternary complex with alpha-1,2-mannobiose): ternary with Man-IFG and α-1,2-mannobiose, was achieved by soaking native BxGH99 crystals
